{
  "source": "patent US6461865B1",
  "about": "“Calreticulin-deficient cells” (priority 1997, dated 2002)",
  "assay_type_in_all_cases": "cell-based, mouse",
  "key": {"ES cells": {"tested_on": "ES cells", "assay": "Cytosolic calcium measurement (fura-2) in ES cells", "conditions": "Ca2+-free medium", "method": "It has been reported that calreticulin can regulate inositol 1,4,5-trisphosphate (InsP3)-mediated calcium signaling in Xenopus oocytes^9. To more specifically examine the role of calreticulin in the storage and mobilization of calcium from InsP3-sensitive stores, we challenged ES cells with lysophosphatidic acid (LPA, 100 nM), which induces InsP3 release12 via heterotrimeric G-protein -mediated activation of phospholipase C. […] The magnitude of this transient was indistinguishable in parental and clone 29 cells (FIG. 4b). […] These observations imply that the stores depleted by LPA represent a subset of the thapsigargin-sensitive compartment.\nTo measure cytosolic free calcium, the cells were loaded with fura-2 by incubation with 0.5-10 μM of the precursor acetoxymethyl ester for 20 min. at 37° C. Fura-2 ratio fluorescence measurements were performed on a Nikon Diaphot TMD microscope (Nikon Canada) equipped with a 100 W Xenon lamp, a shutter/rotating mirror/fiber optic assembly (RatioMaster, Photon Technologies), a Fluor 40x/1.3 oil-immersion objective and a high-sensitivity photometer (D-104, PTI) interfaced to a 386 computer (NEC) via a 12 bit A/D board (Labmaster, National Instruments). […] The intracellular concentration of fura-2 was measured at the isosbestic wavelength (360 nm) and compared to standards. […]"}, "wild-type ES cells": {"tested_on": "wild-type ES cells", "assay": "Serum-free cell attachment assay on fibronectin, wild-type ES cells", "conditions": "peptide 0.5-1 mg/ml, antiserum 10 μg/ml", "method": "The adhesive capacities of the ES cell clones were assessed by quantitative cell attachment assays on fibronectin and laminin under serum-free conditions. […] ES cells lacking calreticulin also were impaired in their ability to adhere to anti-alpha5 beta1 integrin antibodies (FIG. 2a). The heterozygous clone (#34) was generally intermediate in its level of adhesion. None of the clones tested adhered to vitronectin (FIG. 2a). […] To ensure that the observed differences in cell adhesion were not due to differences in the level of expression of the relevant integrins, the cell surface levels of alpha5 beta1, alpha4, alpha6 and alphav beta3 integrins were assessed by flow cytometry. All clones tested expressed similar levels of integrin subunits (FIG. 2c).\nSerum-free adhesion assays are described elsewhere^5. 0.5-1 mg/ml GRGDSP [SEQ ID No: 1] or GRGESP [SEQ. ID No: 2] peptide (Gibco/BRL), 10 μg/ml rabbit anti-fibronectin receptor (Gibco/BRL) or 10 μg/ml rat anti-alpha6 (GoH3, AMAC, Inc.) was added where indicated. For flow cytometric analysis of integrin expression, 1×10^6 cells were incubated on ice for 30 min. with primary antibody; anti-FNR, anti-VNR (Gibco/BRL), anti-alpha6 (GoH3) or anti-alpha429 in PBS/0.1% sodium azide/2.0% fetal bovine serum. […] Cells were fixed in PBS/1.0% paraformaldehyde, pelleted, resuspended in PBS and analyzed on a FACScan (Becton Dickinson Immunocytometry Systems)."}, "[1]": {"tested_on": "calreticulin knock-out ES cells", "assay": "Adhesion of calreticulin knock-out ES cells to fibronectin", "method": "FIG. 4E Adhesion assays to Fibronectin as in FIG. 6. Where indicated 100 nM LPA or 100 nM Tg and anti-FNR antiserum (10 μg/ml) were added. Open bars, parental ES cells; closed bars, knock-out ES cells. All data are means +/− SEM of at least 3 experiments. It is conceivable that a transient increase in cytosolic [Ca^2+] shortly after integrin ligand binding is an important part of normal receptor post-occupancy events (eg. increases in avidity, cytoskeletal reorganization). To examine this possibility, we tested whether stimulation of down-stream events in integrin ‘outside-in’ signaling within calreticulin-null cells could compensate for their adhesion defect. […] Although not shown in FIG. 4, the response to LPA was dose-dependent. […] Serum-free adhesion assays are described elsewhere^5. 0.5-1 mg/ml GRGDSP [SEQ ID No: 1] or GRGESP [SEQ. ID No: 2] peptide (Gibco/BRL), 10 μg/ml rabbit anti-fibronectin receptor (Gibco/BRL) or 10 μg/ml rat anti-alpha6 (GoH3, AMAC, Inc.) was added where indicated. For flow cytometric analysis of integrin expression, 1×10^6 cells were incubated on ice for 30 min. with primary antibody; anti-FNR, anti-VNR (Gibco/BRL), anti-alpha6 (GoH3) or anti-alpha429 in PBS/0.1% sodium azide/2.0% fetal bovine serum. […] Cells were fixed in PBS/1.0% paraformaldehyde, pelleted, resuspended in PBS and analyzed on a FACScan (Becton Dickinson Immunocytometry Systems)."}},
  "data": [
    {"molecule": "C/C=C(/C)C(=O)O[C@H]1C(C)=C2[C@H]([C@@H]1OC(=O)CCCCCCC)[C@@](C)(OC(C)=O)C[C@H](OC(=O)CCC)[C@@]1(O)[C@H]2OC(=O)[C@@]1(C)O", "note": "[thapsigargin]", "values": [
      {"measurement": "Net Ca2+ release after prior LPA", "setting": "ES cells; added after LPA", "value": "induced a second, smaller burst of net Ca^2+ release"}
    ]},
    {"molecule": "GRGDSP [GRGDSP peptides, (Gibco/BRL)]", "values": [
      {"measurement": "Wild-type ES cell adhesion to fibronectin", "setting": "wild-type ES cells", "value": "inhibited adhesion to fibronectin"}
    ]},
    {"molecule": "lysophosphatidic acid [LPA]", "values": [
      {"measurement": "Adhesion of calreticulin knock-out cells to fibronectin", "setting": "[1]; 100 nM", "value": "significantly restored"},
      {"measurement": "Dose dependence of the adhesion response of calreticulin knock-out cells", "setting": "[1]; data not shown in FIG. 4", "value": "dose-dependent"},
      {"measurement": "Cytosolic [Ca2+]i transient", "setting": "ES cells; 100 nM, parental and clone 29 cells", "value": "induced a rapid [Ca2+]i transient"}
    ]}
  ]
}
